According to patent publication US7750003B2, “Compounds-943” (AstraZeneca AB, priority 2006, dated 2010):

Each compound was assayed against recombinant mTOR (FLAG-tagged, residues 1362-2549) (Homo sapiens, UniProt P42345) (assay: In vitro mTOR kinase assay (Test (a), AlphaScreen)). Details: ATP 20 μM, read-out: Test (a): IC50 versus mTOR kinase.
Format: biochemical
In short: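 AlphaScreen read-out: a phospho-T389 p70 S6K antibody on acceptor beads captures the phosphorylated biotin-peptide on donor beads, with signal loss indicating inhibition.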

recombinant mTOR (FLAG-tagged, residues 1362-2549), sequence (P42345 1362-2549): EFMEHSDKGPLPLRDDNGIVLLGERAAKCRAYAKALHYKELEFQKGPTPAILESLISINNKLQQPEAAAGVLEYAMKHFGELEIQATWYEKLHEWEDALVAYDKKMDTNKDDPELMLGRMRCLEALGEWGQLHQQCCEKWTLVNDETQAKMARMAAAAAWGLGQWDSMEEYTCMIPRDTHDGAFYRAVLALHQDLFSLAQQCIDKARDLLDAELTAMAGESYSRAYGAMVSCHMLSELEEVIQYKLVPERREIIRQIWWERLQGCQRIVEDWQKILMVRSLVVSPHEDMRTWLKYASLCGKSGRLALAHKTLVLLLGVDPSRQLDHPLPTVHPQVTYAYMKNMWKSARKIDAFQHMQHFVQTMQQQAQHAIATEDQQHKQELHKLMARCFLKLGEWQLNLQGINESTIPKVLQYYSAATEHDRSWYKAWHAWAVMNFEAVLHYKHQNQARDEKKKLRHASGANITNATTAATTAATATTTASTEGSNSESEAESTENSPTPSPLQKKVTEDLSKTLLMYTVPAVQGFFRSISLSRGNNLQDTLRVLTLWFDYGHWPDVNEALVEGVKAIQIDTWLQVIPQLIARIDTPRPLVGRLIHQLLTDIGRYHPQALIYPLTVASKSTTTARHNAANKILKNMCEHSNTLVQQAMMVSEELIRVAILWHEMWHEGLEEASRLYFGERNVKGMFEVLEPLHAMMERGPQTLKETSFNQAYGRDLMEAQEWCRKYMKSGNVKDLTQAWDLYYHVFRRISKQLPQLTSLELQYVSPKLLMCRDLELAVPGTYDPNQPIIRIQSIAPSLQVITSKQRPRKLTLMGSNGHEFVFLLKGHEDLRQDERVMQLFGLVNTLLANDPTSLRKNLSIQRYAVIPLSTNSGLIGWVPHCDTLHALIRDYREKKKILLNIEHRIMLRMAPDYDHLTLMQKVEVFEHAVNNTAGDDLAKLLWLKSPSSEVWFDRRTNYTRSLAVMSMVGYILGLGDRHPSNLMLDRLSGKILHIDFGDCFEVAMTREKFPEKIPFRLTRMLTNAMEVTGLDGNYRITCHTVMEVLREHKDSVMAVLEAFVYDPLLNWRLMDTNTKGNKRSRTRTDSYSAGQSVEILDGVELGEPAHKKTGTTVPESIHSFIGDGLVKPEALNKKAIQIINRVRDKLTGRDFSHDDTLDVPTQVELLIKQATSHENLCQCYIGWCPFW

Structure (SMILES)	IC50 [nM]
CNC(=O)Nc1ccc(-c2nc(CS(=O)(=O)c3ccccn3)cc(N3CCOC[C@@H]3C)n2)cc1 [Example 33f, 3-methyl-1-[4-[4-[(3S)-3-methylmorpholin-4-yl]-6-(pyridin-2-ylsulfonylmethyl)pyrimidin-2-yl]phenyl]urea]	270
CNC(=O)Nc1ccc(-c2nc(CS(=O)(=O)c3nccs3)cc(N3CCOC[C@@H]3C)n2)cc1 [Example 33g, 3-methyl-1-[4-[4-[(3S)-3-methylmorpholin-4-yl]-6-(1,3-thiazol-2-ylsulfonylmethyl)pyrimidin-2-yl]phenyl]urea]	21
CNC(=O)Nc1ccc(-c2nc(CS(=O)(=O)c3nc(C)cs3)cc(N3CCOC[C@@H]3C)n2)cc1 [Example 33h, 3-methyl-1-[4-[4-[(3S)-3-methylmorpholin-4-yl]-6-[(4-methyl-1,3-thiazol-2-yl)sulfonylmethyl]pyrimidin-2-yl]phenyl]urea]	48
CS(=O)(=O)Cc1cc(N2CCOCC2)nc(-c2ccc(NC(N)=O)cc2)n1 [Example 34, [4-[4-(Methylsulfonylmethyl)-6-morpholin-4-yl-pyrimidin-2-yl]phenyl]urea]	210
CS(=O)(=O)Cc1cc(N2CCOCC2)nc(-c2ccc(NC(=O)Nc3ccon3)cc2)n1 [Example 34a, 1-[4-[4-(methylsulfonylmethyl)-6-morpholin-4-yl-pyrimidin-2-yl]phenyl]-3-(1,2-oxazol-3-yl)urea]	42
Cn1ccc(NC(=O)Nc2ccc(-c3nc(CS(C)(=O)=O)cc(N4CCOCC4)n3)cc2)n1 [Example 34c, 1-(1-methylpyrazol-3-yl)-3-[4-[4-(methylsulfonylmethyl)-6-morpholin-4-yl-pyrimidin-2-yl]phenyl]urea]	720
CC(CO)NC(=O)Nc1ccc(-c2nc(CS(C)(=O)=O)cc(N3CCOC[C@@H]3C)n2)cc1 (stereo partly drawn) [Example 35, 3-(1-Hydroxypropan-2-yl)-1-[4-[4-[(3S)-3-methylmorpholin-4-yl]-6-(methylsulfonylmethyl)pyrimidin-2-yl]phenyl]urea]	64
C[C@H]1COCCN1c1cc(CS(C)(=O)=O)nc(-c2ccc(NC(=O)NCCCN(C)C)cc2)n1 [Example 35a, 3-(3-dimethylaminopropyl)-1-[4-[4-[(3S)-3-methylmorpholin-4-yl]-6-(methylsulfonylmethyl)pyrimidin-2-yl]phenyl]urea]	6400
COCCCNC(=O)Nc1ccc(-c2nc(CS(C)(=O)=O)cc(N3CCOC[C@@H]3C)n2)cc1 [Example 35b, 3-(3-methoxypropyl)-1-[4-[4-[(3S)-3-methylmorpholin-4-yl]-6-(methylsulfonylmethyl)pyrimidin-2-yl]phenyl]urea]	420
C[C@H]1COCCN1c1cc(CS(C)(=O)=O)nc(-c2ccc(NC(=O)N3CCCC3)cc2)n1 [Example 35c, N-[4-[4-[(3S)-3-methylmorpholin-4-yl]-6-(methylsulfonylmethyl)pyrimidin-2-yl]phenyl]pyrrolidine-1-carboxamide]	3400
C[C@H]1COCCN1c1cc(CS(C)(=O)=O)nc(-c2ccc(NC(=O)N3CCOCC3)cc2)n1 [Example 35d, N-[4-[4-[(3S)-3-methylmorpholin-4-yl]-6-(methylsulfonylmethyl)pyrimidin-2-yl]phenyl]morpholine-4-carboxamide]	3200
C[C@H]1COCCN1c1cc(CS(C)(=O)=O)nc(-c2ccc(NC(=O)N3CCC(O)CC3)cc2)n1 [Example 35e, 4-hydroxy-N-[4-[4-[(3S)-3-methylmorpholin-4-yl]-6-(methylsulfonylmethyl)pyrimidin-2-yl]phenyl]piperidine-1-carboxamide]	2500
C[C@H]1COCCN1c1cc(CS(C)(=O)=O)nc(-c2ccc(NC(=O)NC(C)(C)C)cc2)n1 [Example 35f, 1-[4-[4-[(3S)-3-methylmorpholin-4-yl]-6-(methylsulfonylmethyl)pyrimidin-2-yl]phenyl]-3-tert-butyl-urea]	820
C[C@H]1COCCN1c1cc(CS(C)(=O)=O)nc(-c2ccc(NC(=O)N3CCCC(O)C3)cc2)n1 (stereo partly drawn) [Example 35i, 3-hydroxy-N-[4-[4-[(3S)-3-methylmorpholin-4-yl]-6-(methylsulfonylmethyl)pyrimidin-2-yl]phenyl]piperidine-1-carboxamide]	770
C[C@H]1COCCN1c1cc(CS(C)(=O)=O)nc(-c2ccc(NC(=O)N(C)CCN(C)C)cc2)n1 [Example 35j, 1-(2-dimethylaminoethyl)-1-methyl-3-[4-[4-[(3S)-3-methylmorpholin-4-yl]-6-(methylsulfonylmethyl)pyrimidin-2-yl]phenyl]urea]	3600
C[C@H]1COCCN1c1cc(CS(C)(=O)=O)nc(-c2ccc(NC(=O)NCCN3CCOCC3)cc2)n1 [Example 35k, 1-[4-[4-[(3S)-3-methylmorpholin-4-yl]-6-(methylsulfonylmethyl)pyrimidin-2-yl]phenyl]-3-(2-morpholin-4-ylethyl)urea]	1200

Structure (SMILES)	IC50 [nM]
C[C@H]1COCCN1c1cc(CS(C)(=O)=O)nc(-c2ccc(NC(=O)NCc3ncc[nH]3)cc2)n1 [Example 35l, 3-(1H-imidazol-2-ylmethyl)-1-[4-[4-[(3S)-3-methylmorpholin-4-yl]-6-(methylsulfonylmethyl)pyrimidin-2-yl]phenyl]urea]	470
C[C@H]1COCCN1c1cc(CS(C)(=O)=O)nc(-c2ccc(NC(=O)N(C)C3CC3)cc2)n1 [Example 35m, 1-cyclopropyl-1-methyl-3-[4-[4-[(3S)-3-methylmorpholin-4-yl]-6-(methylsulfonylmethyl)pyrimidin-2-yl]phenyl]urea]	2000
C[C@H]1COCCN1C(=O)Nc1ccc(-c2nc(CS(C)(=O)=O)cc(N3CCOC[C@@H]3C)n2)cc1 [Example 35n, (3S)-3-methyl-N-[4-[4-[(3S)-3-methylmorpholin-4-yl]-6-(methylsulfonylmethyl)pyrimidin-2-yl]phenyl]morpholine-4-carboxamide]	1100
C[C@H]1COCCN1C(=O)c1cc(N2CCOC[C@@H]2C)nc(-c2ccc(NC(=O)NC3CC3)cc2)n1 [Example 36, 3-Cyclopropyl-1-[4-[4-[(3S)-3-methylmorpholine-4-carbonyl]-6-[(3S)-3-methylmorpholin-4-yl]pyrimidin-2-yl]phenyl]urea]	62
C[C@H]1COCCN1c1cc(C(=O)NC2CC2)nc(-c2ccc(NC(=O)NC3CC3)cc2)n1 [Example 36a, N-cyclopropyl-2-[4-(cyclopropylcarbamoylamino)phenyl]-6-[(3S)-3-methylmorpholin-4-yl]pyrimidine-4-carboxamide]	2900
C[C@H]1COCCN1c1cc(C(=O)N2CCN(C)CC2)nc(-c2ccc(NC(=O)NC3CC3)cc2)n1 [Example 36b, 3-cyclopropyl-1-[4-[4-[(3S)-3-methylmorpholin-4-yl]-6-(4-methylpiperazine-1-carbonyl)pyrimidin-2-yl]phenyl]urea]	180
C[C@H]1COCCN1c1cc(C(C)(C)O)nc(-c2ccc(NC(=O)NC3CC3)cc2)n1 [Example 37, 3-Cyclopropyl-1-[4-[4-(2-hydroxypropan-2-yl)-6-[(3S)-3-methylmorpholin-4-yl]pyrimidin-2-yl]phenyl]urea]	51
C[C@H]1COCCN1c1cc(C(C)(C)O)nc(-c2ccc(NC(=O)NCc3cnn(C)c3)cc2)n1 [Example 38, 1-[4-[4-(2-Hydroxypropan-2-yl)-6-[(3S)-3-methylmorpholin-4-yl]pyrimidin-2-yl]phenyl]-3-[(1-methylpyrazol-4-yl)methyl]urea]	1300
C[C@H]1COCCN1c1cc(CO)nc(-c2ccc(NC(=O)Nc3ccon3)cc2)n1 [Example 39, 1-[4-[4-(Hydroxymethyl)-6-[(3S)-3-methylmorpholin-4-yl]pyrimidin-2-yl]phenyl]-3-(1,2-oxazol-3-yl)urea]	75
C[C@H]1COCCN1c1cc(CO)nc(-c2ccc(NC(=O)NC3CC3)cc2)n1 [Example 42, 3-Cyclopropyl-1-[4-[4-(hydroxymethyl)-6-[(3S)-3-methylmorpholin-4-yl]pyrimidin-2-yl]phenyl]urea]	190
C[C@H]1COCCN1c1cc(CS(=O)(=O)c2ccncc2)nc(-c2ccc(NC(=O)NC3CC3)cc2)n1 [Example 43, 3-Cyclopropyl-1-[4-[4-[(3S)-3-methylmorpholin-4-yl]-6-(pyridin-4-ylsulfonylmethyl)pyrimidin-2-yl]phenyl]urea]	76
CNC(=O)CS(=O)(=O)Cc1cc(N2CCOC[C@@H]2C)nc(-c2ccc(NC(=O)NC3CC3)cc2)n1 [Example 43a, 2-[[2-[4-(cyclopropylcarbamoylamino)phenyl]-6-[(3S)-3-methylmorpholin-4-yl]pyrimidin-4-yl]methylsulfonyl]-N-methyl-acetamide]	87
C[C@H]1COCCN1c1cc(CS(=O)(=O)c2ccc(F)cc2)nc(-c2ccc(NC(=O)NC3CC3)cc2)n1 [Example 43b, 3-cyclopropyl-1-[4-[4-[(4-fluorophenyl)sulfonylmethyl]-6-[(3S)-3-methylmorpholin-4-yl]pyrimidin-2-yl]phenyl]urea]	150
CC(=O)Nc1ccc(S(=O)(=O)Cc2cc(N3CCOC[C@@H]3C)nc(-c3ccc(NC(=O)NC4CC4)cc3)n2)cc1 [Example 43c, N-[4-[[2-[4-(cyclopropylcarbamoylamino)phenyl]-6-[(3S)-3-methylmorpholin-4-yl]pyrimidin-4-yl]methylsulfonyl]phenyl]acetamide]	13
C[C@H]1COCCN1c1cc(CS(=O)(=O)CCO)nc(-c2ccc(NC(=O)NC3CC3)cc2)n1 [Example 43d, 3-cyclopropyl-1-[4-[4-(2-hydroxyethylsulfonylmethyl)-6-[(3S)-3-methylmorpholin-4-yl]pyrimidin-2-yl]phenyl]urea]	11
C[C@H]1COCCN1c1cc(CS(=O)(=O)c2nccs2)nc(-c2ccc(NC(=O)NC3CC3)cc2)n1 [Example 43e, 3-cyclopropyl-1-[4-[4-[(3S)-3-methylmorpholin-4-yl]-6-(1,3-thiazol-2-ylsulfonylmethyl)pyrimidin-2-yl]phenyl]urea]	130
